Experimental findings from patent publication US20230257385A1, “SALT AND SOLID FORMS OF TABERNANTHALOG” (priority 2021, published 2023) are described below.

Series [1] is described as follows: Solubility determinations in SIF buffers FaSSIF, FeSSIF, FaSSGF (Example 8, Experiment 5). The settings on record: tabernanthalog sorbate salt, 37° C. On the procedure: The temperature was maintained at 37° C. for 24 h. […] The suspensions were sampled at the relevant time points and centrifuged. The centrifuged pellets, obtained at the time points were analysed by XRPD as a wet pellet and dried, for evidence of form change.
The temperature was maintained at 37° C. for 24 h.
The suspension was sampled at the relevant time points and centrifuged. […] The centrifuged pellets, obtained at the time points were analyzed by XRPD as a wet pellet and dried, for evidence of form change.

Series [2] is described as follows: Suspension equilibration of the monofumarate salt at 20° C. and 40° C. (Experiment References 6, 7, 8). Format: physicochemical. The following applies: for Observations (t = 0 @ 20° C.) / Observations (t = 1 d @ 20° C.) / Observations t = 7 d @ 20° C.: suspension equilibration at 20° C.; for Observations (t = 0 @ 40° C.) / Observations (t = 1 d @ 40° C.) / Observations t = 7 d @ 40° C.: suspension equilibration at 40° C. On the procedure:
Separate portions of the tabernanthalog monofumarate salt (Sample Reference 1, Pattern #1, ca 50 mg, 1.0 wt.) were charged to separate vessels. The appropriate solvents (e.g. 250 μl, 5.0 vol), were charged to the vessels and the mixtures were stirred for several days at their relevant temperatures e.g. 20 and 40° C. After this time the products were cooled, isolated by centrifugation, analyzed as wet pellet (suffix-1) by XRPD and dried under reduced pressure at 40° C. (suffix-2) and re-analyzed by XRPD and companion analyses for evidence of alternative crystalline forms.
The tabernanthalog monofumarate salt (Sample Reference 1, Pattern #1) was subjected to this technique at ambient temperature (20° C., Table 35) and at elevated temperature (40° C., Table 36), in a diverse range of solvents. The primary aim is to identify a stable, anhydrous monotropic form that is suitable for future development.
The tabernanthalog monofumarate salt (Sample Reference 1, Pattern #1, 1.0 g, 1 wt) was suspended in water (5 ml, 5 vol) at 20° C. for 10 days (the suspension was sub-sampled to monitor the conversion to Pattern #6a by XRPD). The suspension was filtered through a sintered funnel and the filter cake was dried under nitrogen flow for ca. 24 h. Sample 8-A4 (Experiment Reference 8-Sample Reference A4) was collected as a brown solid (560.6 mg, 56% yield uncorr.). Yield was not corrected for impurities, solvents, etc.

For `C/C=C/C=C/C(=O)O.COc1ccc2c3c([nH]c2c1)CCN(C)CC3` [Sample 5-L1], the “Tabernanthalog RRT = 1.00 (trended HPLC data, chemical purity)” value in series [1] (t = 1 h in FaSSGF) is listed as 99.52.

`C/C=C/C=C/C(=O)O.COc1ccc2c3c([nH]c2c1)CCN(C)CC3` [Sample 5-L4]: in series [1] (t = 3 h in FaSSGF), the “Tabernanthalog RRT = 1.00 (trended HPLC data, chemical purity)” value stood at 99.36.

`C/C=C/C=C/C(=O)O.COc1ccc2c3c([nH]c2c1)CCN(C)CC3` [Sample 5-L7]: in series [1] (t = 6 h in FaSSGF), the “Tabernanthalog RRT = 1.00 (trended HPLC data, chemical purity)” value was found to be 99.30.

With `C/C=C/C=C/C(=O)O.COc1ccc2c3c([nH]c2c1)CCN(C)CC3` [Sample 5-L10], in series [1] (t = 24 h in FaSSGF), the “Tabernanthalog RRT = 1.00 (trended HPLC data, chemical purity)” value was 99.33.

Take `COc1ccc2c3c([nH]c2c1)CCN(C)CC3.O=C(O)/C=C/C(=O)O` [Tabernanthalog•Monofumarate (CAT8931)]: the “Observations (t = 0 @ 20° C.)” value in series [2] (6-A, Acetone) is on record as “Suspension”; in series [2] (6-B, Acetonitrile), “Suspension”; in series [2] (6-C, tert-Butylmethyl ether), “Suspension”; in series [2] (6-D, Chlorobenzene), “Suspension”; in series [2] (6-E, Dichloromethane), “Suspension”; in series [2] (6-F, Ethanol), “Suspension”. The “Observations (t = 0 @ 20° C.)” value in series [2] (6-G, Ethyl acetate) is given as “Suspension”; in series [2] (6-H, Ethyl formate), “Suspension”; in series [2] (6-I, Heptane), “Suspension”; in series [2] (6-J, Isopropyl acetate) it was “Suspension”; in series [2] (6-K, Methanol) it was “Suspension”; in series [2] (6-L, Methyl acetate) it was “Suspension”. The “Observations (t = 0 @ 20° C.)” value in series [2] (6-M, Methylethyl ketone) is recorded as “Suspension”; in series [2] (6-N, 2-Methyl THF), “Suspension”; in series [2] (6-O, Nitromethane) it was “Suspension”; in series [2] (6-P, 2-Propanol), “Suspension”; in series [2] (6-Q, Tetrahydrofuran), “Suspension”; in series [2] (6-R, Toluene), “Suspension”. Further, the “Observations (t = 0 @ 20° C.)” value in series [2] (6-S, Water) is reported as “Suspension”. Also, the “Observations (t = 1 d @ 20° C.)” value in series [2] (6-A, Acetone) is reported as “Suspension”; in series [2] (6-B, Acetonitrile), “Suspension”; in series [2] (6-C, tert-Butylmethyl ether), “Suspension”; in series [2] (6-D, Chlorobenzene), “Suspension”; in series [2] (6-E, Dichloromethane), “Suspension”; in series [2] (6-F, Ethanol) it was “Suspension”. Moreover, the “Observations (t = 1 d @ 20° C.)” value in series [2] (6-G, Ethyl acetate) is given as “Suspension”; in series [2] (6-H, Ethyl formate) it was “Suspension”; in series [2] (6-I, Heptane), “Suspension”; in series [2] (6-J, Isopropyl acetate), “Suspension”; in series [2] (6-K, Methanol), “Suspension”; in series [2] (6-L, Methyl acetate), “Suspension”. Besides, the “Observations (t = 1 d @ 20° C.)” value is on record as “Suspension” in series [2] (6-M, Methylethyl ketone); “Suspension” in series [2] (6-N, 2-Methyl THF); “Suspension” in series [2] (6-O, Nitromethane); “Suspension” in series [2] (6-P, 2-Propanol); “Suspension” in series [2] (6-Q, Tetrahydrofuran); “Suspension” in series [2] (6-R, Toluene). In series [2] (6-S, Water), the “Observations (t = 1 d @ 20° C.)” value is listed as “Suspension”. Moreover, the “Observations t = 7 d @ 20° C.” value in series [2] (6-A, Acetone) was “Suspension”; in series [2] (6-B, Acetonitrile), “Suspension”; in series [2] (6-C, tert-Butylmethyl ether), “Suspension”; in series [2] (6-D, Chlorobenzene), “Suspension”; in series [2] (6-E, Dichloromethane), “Suspension”; in series [2] (6-F, Ethanol) it was “Suspension”. The “Observations t = 7 d @ 20° C.” value in series [2] (6-G, Ethyl acetate) is reported as “Suspension”; in series [2] (6-H, Ethyl formate), “Suspension”; in series [2] (6-I, Heptane), “Suspension”; in series [2] (6-J, Isopropyl acetate), “Suspension”; in series [2] (6-K, Methanol) it was “Suspension”; in series [2] (6-L, Methyl acetate) it was “Suspension”. Besides, the “Observations t = 7 d @ 20° C.” value in series [2] (6-M, Methylethyl ketone) is given as “Suspension”; in series [2] (6-N, 2-Methyl THF), “Suspension”; in series [2] (6-O, Nitromethane), “Suspension”; in series [2] (6-P, 2-Propanol), “Suspension”; in series [2] (6-Q, Tetrahydrofuran), “Suspension”; in series [2] (6-R, Toluene), “Suspension”. In series [2] (6-S, Water), the “Observations t = 7 d @ 20° C.” value is recorded as “Suspension”.

Consider `COc1ccc2c3c([nH]c2c1)CCN(C)CC3.O=C(O)/C=C/C(=O)O` [Tabernanthalog•fumarate (CAT8931)], for which the “Observations (t = 0 @ 40° C.)” value in series [2] (7-A, Acetone) is listed as “Suspension”; in series [2] (7-B, Acetonitrile), “Suspension”; in series [2] (7-C, tert-Butylmethyl ether), “Suspension”; in series [2] (7-D, Chlorobenzene) it was “Suspension”; in series [2] (7-E, Dichloromethane), “Suspension”; in series [2] (7-F, Ethanol) it was “Suspension”. For the same compound, the “Observations (t = 0 @ 40° C.)” value in series [2] (7-G, Ethyl acetate) is “Suspension”; in series [2] (7-H, Ethyl formate), “Suspension”; in series [2] (7-I, Heptane), “Suspension”; in series [2] (7-J, Isopropyl acetate) it was “Suspension”; in series [2] (7-K, Methanol) it was “Suspension”; in series [2] (7-L, Methyl acetate), “Suspension”. For the same compound, the “Observations (t = 0 @ 40° C.)” value in series [2] (7-M, Methylethyl ketone) was “Suspension”; in series [2] (7-N, 2-Methyl THF), “Suspension”; in series [2] (7-O, Nitromethane), “Suspension”; in series [2] (7-P, 2-Propanol) it was “Suspension”; in series [2] (7-Q, Tetrahydrofuran), “Suspension”; in series [2] (7-R, Toluene), “Suspension”. In addition, the “Observations (t = 0 @ 40° C.)” value in series [2] (7-S, Water) is reported as “Suspension”. Also, the “Observations (t = 1 d @ 40° C.)” value in series [2] (7-A, Acetone) is on record as “Suspension”; in series [2] (7-B, Acetonitrile), “Suspension”; in series [2] (7-D, Chlorobenzene), “Suspension”; in series [2] (7-E, Dichloromethane), “Suspension”; in series [2] (7-F, Ethanol), “Suspension”; in series [2] (7-G, Ethyl acetate), “Suspension”. Moreover, the “Observations (t = 1 d @ 40° C.)” value in series [2] (7-H, Ethyl formate) is “Suspension”; in series [2] (7-I, Heptane) it was “Suspension”; in series [2] (7-J, Isopropyl acetate), “Suspension”; in series [2] (7-L, Methyl acetate), “Suspension”; in series [2] (7-M, Methylethyl ketone), “Suspension”; in series [2] (7-N, 2-Methyl THF), “Suspension”. The “Observations (t = 1 d @ 40° C.)” value was “Suspension” in series [2] (7-O, Nitromethane); “Suspension” in series [2] (7-P, 2-Propanol); “Sticky Solid” in series [2] (7-Q, Tetrahydrofuran); “Suspension” in series [2] (7-R, Toluene). Besides, the “Observations t = 7 d @ 40° C.” value in series [2] (7-A, Acetone) is given as “Suspension”; in series [2] (7-B, Acetonitrile), “Suspension”; in series [2] (7-C, tert-Butylmethyl ether), “Suspension”; in series [2] (7-D, Chlorobenzene), “Suspension”; in series [2] (7-E, Dichloromethane) it was “Suspension”; in series [2] (7-F, Ethanol) it was “Suspension”. Also, the “Observations t = 7 d @ 40° C.” value is on record as “Suspension” in series [2] (7-G, Ethyl acetate); “Suspension” in series [2] (7-H, Ethyl formate); “Suspension” in series [2] (7-I, Heptane); “Suspension” in series [2] (7-J, Isopropyl acetate); “Suspension” in series [2] (7-K, Methanol); “Suspension” in series [2] (7-L, Methyl acetate). Further, the “Observations t = 7 d @ 40° C.” value is recorded as “Suspension” in series [2] (7-M, Methylethyl ketone); “Suspension” in series [2] (7-N, 2-Methyl THF); “Suspension” in series [2] (7-O, Nitromethane); “Suspension” in series [2] (7-P, 2-Propanol); “Suspension” in series [2] (7-Q, Tetrahydrofuran); “Suspension” in series [2] (7-R, Toluene). In series [2] (7-S, Water), the “Observations t = 7 d @ 40° C.” value is given as “Suspension”.
